Assay results: patent US20120021476A1, “Trace Element Solution For Biogas Methods” (AGRAFERM TECHNOLOGIES AG, priority 2007, published 2012)
Like-named read-outs stand apart in the source and are kept apart here. Residues, ends and D or L forms follow the SMILES beside them.

How the values were obtained:
[1] = cited from earlier work
[2] = cited from earlier work; remark: listed apart in the source
[3] = cited from earlier work; remark: listed apart in the source
[4] = Concentrations of the trace elements in the fermentation residue with different complexing agents; type: physicochemical
Text: In Table 1 the trace element solution according to the invention contains the complexing agent in a stoichiometric amount of 60% EDTA and 60% of a phosphoric acid mixture relative to the overall amount of trace elements, which is composed of identical molar amounts of pyrophosphoric acid (H4P2O7), polyphosphoric acid (H6P4O13), metaphosphoric acid (H4P4O12), hypophosphoric Acid (H3PO2) and phosphorus acid (phosphonic acid) (H3PO3).

[5] = as above; type: physicochemical; remark: listed apart in the source
[6] = cited from earlier work; remark: listed apart in the source
[7] = cited from earlier work; remark: listed apart in the source
[8] = cited from earlier work; remark: listed apart in the source
[9] = cited from earlier work; remark: listed apart in the source
[10] = cited from earlier work; remark: listed apart in the source
[11] = cited from earlier work; remark: listed apart in the source
[12] = cited from earlier work; remark: listed apart in the source
[13] = 100 × times metal versus Simple, 50% NTA
[14] = column after 50% NTA and citrate (500%), not the invention

CC(C)[C@H](N)C(=O)O [C5H11O2N, valine]
complexing of Ni^2+ in words [1]: very well | complexing of Cu^2+ in words [2]: very well | complexing of Zn^2+ in words [3]: very well

[Ca+2] [Ca, calcium]
Bio-availability (Invention) [4]: 100% | Difference [5, 13]: 38.2% | Bio-availability [5, 14]: 100%

[Mg+2] [Mg, magnesium]
Bio-availability (Invention) ([4]; 60% EDTA 60% phosphoric acids): 100% | Difference [5, 13]: 9698.1% | Bio-availability [5, 14]: 100%

N[C@@H](CC(=O)O)C(=O)O [C4H7O4N, Aspartic acid]
complexing of Ni^2+ in words [1]: very well | complexing of Cu^2+ in words [2]: very well | complexing of Al^3+ in words [6]: only moderately | complexing of Zn^2+ in words [3]: very well

N[C@@H](Cc1ccccc1)C(=O)O [C9H11O2N, phenylalanine]
complexing of Cu^2+ in words [2]: very good | complexing of Zn^2+ in words [3]: very good

O=CC(=O)O [C2H2O3, oxoethanoic acid]
complexing of Fe^2+ in words [7]: somewhat more poorly | complexing of Co^2+ in words [8]: somewhat more poorly | complexing of Ni^2+ in words [1]: somewhat more poorly | complexing of Cu^2+ in words [2]: in small amounts

CC(C)[C@H](N)C(=O)N[C@H](C(=O)O)C(C)C [L-valyl-L-valine] (H-Val-Val-OH)
complexing of Ni^2+ in words [1]: very good

CC(=O)CC(C)=O [CH3(C═O)CH2(C═O)CH3, acetylacetone]
complexing of Mg^2+ in words [9]: moderately well | complexing of Fe^2+ in words [7]: moderately well | complexing of Mn^2+ in words [10]: moderately well | complexing of Co^2+ in words [8]: moderately well | complexing of Ni^2+ in words [1]: well | complexing of Cu^2+ in words [2]: well | complexing of Al^3+ in words [6]: extremely well | complexing of Fe^3+ in words [11]: extremely well

CC(=O)C(=O)O [CH3(C═O)COOH, oxopropionic acid (pyruvic acid, pyruvate)]
complexing of Fe^2+ in words [7]: somewhat more poorly | complexing of Co^2+ in words [8]: somewhat more poorly | complexing of Ni^2+ in words [1]: somewhat more poorly | complexing of Cu^2+ in words [2]: in small amounts

meso-malic acid
complexing of Al^3+ in words [6]: good | complexing of Fe^3+ in words [11]: good

O=P(O)(O)OP(=O)(O)O [H4P2O7, pyrophosphoric acid]
complexing of Mg^2+ in words [9]: very strongly | complexing of Mn^2+ in words [10]: very strongly

[Ni] [Ni, nickel]
Bio-availability (Invention) [4]: 100% | Bio-availability [5]: 0% | Difference [5]: −100.0% | available share of the added volume [5]: 2 ppm | bio-availability in words [5]: hardly bio-available at all

[Zn] [Zn, zinc]
Bio-availability (Invention) [4]: 100% | bio-availability in words ([5]; 50% NTA): hardly bio-available at all | Difference [5, 13]: −100.0% | Bio-availability [5, 14]: 0%

[Co] [Co, cobalt]
Bio-availability (Invention) [4]: 100% | bio-availability in words ([5]; 50% NTA): hardly bio-available at all | Difference [5, 13]: −100.0% | Bio-availability [5, 14]: 0%

[Al] [Al]
Bio-availability (Invention) ([4]; 60% EDTA 60% phosphoric acids): 100% | Difference [5, 13]: 9931.3% | Bio-availability [5, 14]: 100%

[Mn+2] [Mn, manganese]
Bio-availability (Invention) [4]: 100% | Bio-availability [5]: 31% | Difference [5]: −99.2%

N[C@@H](CSSC[C@H](N)C(=O)O)C(=O)O [C6H12O4N2S2, cystine]
complexing of Ni^2+ in words [1]: very well | complexing of Cu^2+ in words [2]: excellent | complexing of Zn^2+ in words [3]: very well

O=C(O)CC(S)C(=O)O (centres unmarked) [HOOCCH2CH(SH)COOH, Mercaptomalic acid]
complexing of Ni^2+ in words [1]: well | complexing of Zn^2+ in words [3]: well

[Fe] [Fe, iron]
Bio-availability (Invention) ([4]; 60% EDTA 60% phosphoric acids): 100% | Difference [5, 13]: 4260.1% | Bio-availability [5, 14]: 100%

O=C(O)CC(O)C(=O)O (centres unmarked) [HOOCCH2CH(OH)COOH, malic acid]
complexing of Al^3+ in words [6]: good | complexing of Fe^3+ in words [11]: good

C[C@@H](O)[C@H](N)C(=O)O [C4H9O3N, Threonine]
complexing of Co^2+ in words [8]: good | complexing of Cu^2+ in words [2]: very well | complexing of Zn^2+ in words [3]: good

[Cu] [Cu, copper]
Bio-availability (Invention) ([4]; 60% EDTA 60% phosphoric acids): 0% | Difference [5, 13]: −100.0% | Bio-availability [5, 14]: 0%

O=C(O)CS [CH2(SH)COOH, mercaptoacetic acid (thio-glycol acid)]
complexing of Fe^2+ in words [7]: very good | complexing of Mn^2+ in words [10]: good | complexing of Co^2+ in words [8]: very good | complexing of Fe^3+ in words [11]: excellent | complexing of Zn^2+ in words [3]: excellent

OB(O)O [H3O3B, boric acid]
complexing of Mg^2+ in words [9]: only with difficulty | complexing of Ca^2+ in words [12]: only with difficulty | complexing of Fe^3+ in words [11]: very good

N[C@@H](CS)C(=O)O [C3H7O2NS, Cysteine]
complexing of Co^2+ in words [8]: extremely well | complexing of Ni^2+ in words [1]: extremely well

N[C@@H](CCC(=O)O)C(=O)O [C5H9O4N, Glutamic acid]
complexing of Ni^2+ in words [1]: very well | complexing of Cu^2+ in words [2]: very well | complexing of Zn^2+ in words [3]: not so well

O=C(O)c1cc(=O)[nH]c(=O)[nH]1 [C5H4O4N2, Orotic acid]
complexing of Co^2+ in words [8]: able to complex | complexing of Ni^2+ in words [1]: able to complex | complexing of Cu^2+ in words [2]: able to complex

O=C(O)C(=O)O [(COOH)2, Oxalic acid]
complexing of Ca^2+ in words [12]: precipitates | complexing of Fe^2+ in words [7]: moderate | complexing of Co^2+ in words [8]: moderate | complexing of Ni^2+ in words [1]: moderate | complexing of Cu^2+ in words [2]: moderate | complexing of Fe^3+ in words [11]: good | complexing of Zn^2+ in words [3]: moderate

NCCCC[C@H](N)C(=O)O [C6H14O2N2, lysine]
complexing of Ni^2+ in words [1]: very good | complexing of Cu^2+ in words [2]: very good | complexing of Zn^2+ in words [3]: well

N[C@@H](Cc1c[nH]cn1)C(=O)O [C6H9O2N3, Histidine]
complexing of Ca^2+ in words [12]: poor | complexing of Mn^2+ in words [10]: good | complexing of Co^2+ in words [8]: very good | complexing of Ni^2+ in words [1]: very good | complexing of Cu^2+ in words [2]: very good | complexing of Al^3+ in words [6]: good | complexing of Zn^2+ in words [3]: very good

CC(O)C(=O)O (centres unmarked) [CH3CH(OH)COOH, 2-hydroxypropionic acid (lactic acid)]
complexing of Fe^2+ in words [7]: somewhat more poorly | complexing of Co^2+ in words [8]: somewhat more poorly | complexing of Ni^2+ in words [1]: somewhat more poorly | complexing of Cu^2+ in words [2]: in small amounts

O=C(O)CC(O)(CC(=O)O)C(=O)O [HOOCCH2C(OH)(COOH)CH2COOH, Citric acid]
complexing of Co^2+ in words [8]: good | complexing of Ni^2+ in words [1]: good | complexing of Cu^2+ in words [2]: good | complexing of Fe^3+ in words [11]: good

O=C(O)CNCCNCC(=O)O [EDDA, Ethylendiimine diacetic acid]
complexing of Mn^2+ in words [10]: well | complexing of Co^2+ in words [8]: very well | complexing of Zn^2+ in words [3]: very well

O=C[C@H](O)[C@@H](O)[C@@H](O)[C@H](O)C(=O)O [C6H10O7, galacturonic acid]
complexing of Fe^2+ in words [7]: very well

O=C(O)c1ccccc1O [(C6H4)(OH)(COOH), Salicylic acid]
complexing of Mn^2+ in words [10]: very good | complexing of Co^2+ in words [8]: very good | complexing of Ni^2+ in words [1]: very good | complexing of Cu^2+ in words [2]: very good | complexing of Fe^3+ in words [11]: excellent | complexing of Zn^2+ in words [3]: good
